Test results as given in the supplement of paper PMC10307832.

Columns and labels:
Experiment in all cases: relative viability (nuclei count vs DMSO), 5 days (fraction); higher = more cells survive
AT9283 + Olaparib = compound: O=C(Nc1c[nH]nc1-c1nc2ccc(CN3CCOCC3)cc2[nH]1)NC1CC1 [AT9283] + O=C(c1cc(Cc2n[nH]c(=O)c3ccccc23)ccc1F)N1CCN(C(=O)C2CC2)CC1 [Olaparib] (partner 8 µM)
In short: (§1)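 One day after seeding in 1536-well plates, lung cancer cell lines were dosed by pin tool. Dosing was either single-drug or a fixed anchor-drug dose plus five library-drug doses (not always all listed) in √10 steps. After 5 days, nuclei were stained in one fix-and-stain step and counted on 4× images, and relative viability is the nuclei count of treated wells over that of vehicle wells, given as the median of duplicate plates.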

Erlotinib + Phenformin = compound: C#Cc1cccc(Nc2ncnc3cc(OCCOC)c(OCCOC)cc23)c1 [Erlotinib] + N=C(N)NC(=N)NCCc1ccccc1 [Phenformin] (partner 250 µM)
In short: as §1

AT9283 + Trametinib = compound: O=C(Nc1c[nH]nc1-c1nc2ccc(CN3CCOCC3)cc2[nH]1)NC1CC1 [AT9283] + CC(=O)Nc1cccc(-n2c(=O)n(C3CC3)c(=O)c3c(Nc4ccc(I)cc4F)n(C)c(=O)c(C)c32)c1 [Trametinib] (partner 0.02 µM)
In short: as §1

Erlotinib + Linsitinib = compound: C#Cc1cccc(Nc2ncnc3cc(OCCOC)c(OCCOC)cc23)c1 [Erlotinib] + C[C@]1(O)C[C@@H](c2nc(-c3ccc4ccc(-c5ccccc5)nc4c3)c3c(N)nccn32)C1 [Linsitinib] (partner 1 µM)
In short: as §1

AT9283 + Linsitinib = compound: O=C(Nc1c[nH]nc1-c1nc2ccc(CN3CCOCC3)cc2[nH]1)NC1CC1 [AT9283] + C[C@]1(O)C[C@@H](c2nc(-c3ccc4ccc(-c5ccccc5)nc4c3)c3c(N)nccn32)C1 [Linsitinib] (partner 1 µM)
In short: as §1

| Cell Line | relative viability (AT9283 + Olaparib; first compound 0.003 µM) | relative viability (AT9283 + Olaparib; first compound 0.03 µM) | relative viability (AT9283 + Olaparib; first compound 0.09487 µM) | relative viability (AT9283 + Olaparib; first compound 0.3 µM) | relative viability (Erlotinib + Phenformin; first compound 0.02 µM) | relative viability (Erlotinib + Phenformin; first compound 0.2 µM) | relative viability (Erlotinib + Phenformin; first compound 0.6325 µM) | relative viability (Erlotinib + Phenformin; first compound 2 µM) | relative viability (AT9283 + Trametinib; first compound 0.003 µM) | relative viability (AT9283 + Trametinib; first compound 0.03 µM) | relative viability (AT9283 + Trametinib; first compound 0.09487 µM) | relative viability (AT9283 + Trametinib; first compound 0.3 µM) | relative viability (Erlotinib + Linsitinib; first compound 0.02 µM) | relative viability (Erlotinib + Linsitinib; first compound 0.2 µM) | relative viability (Erlotinib + Linsitinib; first compound 0.6325 µM) | relative viability (Erlotinib + Linsitinib; first compound 2 µM) | relative viability (AT9283 + Linsitinib; first compound 0.003 µM) | relative viability (AT9283 + Linsitinib; first compound 0.03 µM) | relative viability (AT9283 + Linsitinib; first compound 0.09487 µM) | relative viability (AT9283 + Linsitinib; first compound 0.3 µM) |
| --- | --- | --- | --- | --- | --- | --- | --- | --- | --- | --- | --- | --- | --- | --- | --- | --- | --- | --- | --- | --- |
| NCI-H1355 | 0.803 | 0.708 | 0.329 | 0.246 | 0.474 | 0.493 | 0.458 | 0.414 | 0.446 | 0.427 | 0.354 | 0.179 | 0.921 | 0.815 | 0.723 | 0.559 | 0.807 | 0.649 | 0.273 | 0.167 |
| NCI-H1395 | 0.414 | 0.46 | 0.38 | 0.358 | 0.503 | 0.462 | 0.483 | 0.463 | 1.07 | 0.865 | 0.444 | 0.341 | 1.1 | 1.1 | 1.23 | 1.06 | 1.08 | 0.901 | 0.373 | 0.383 |
| NCI-H1437 | 0.616 | 0.549 | 0.3 | 0.277 | 0.352 | 0.301 | 0.286 | 0.286 | 0.547 | 0.568 | 0.302 | 0.14 | 1.05 | 0.941 | 0.83 | 0.526 | 1.06 | 0.691 | 0.181 | 0.158 |
| NCI-H1651 | 0.176 | 0.189 | 0.209 | 0.243 | 0.336 | 0.316 | 0.288 | 0.259 | 0.838 | 0.875 | 0.819 | 0.39 | 0.967 | 0.996 | 1.07 | 0.842 | 1.05 | 0.864 | 0.348 | 0.357 |
| NCI-H1666 | 0.739 | 0.724 | 0.608 | 0.533 | 0.562 | 0.584 | 0.522 | 0.533 | 0.852 | 0.721 | 0.637 | 0.474 | 0.82 | 0.696 | 0.62 | 0.496 | 0.964 | 0.779 | 0.265 | 0.355 |
| NCI-H1734 | 0.643 | 0.414 | 0.293 | 0.259 | 0.4 | 0.378 | 0.391 | 0.359 | 0.7 | 0.406 | 0.267 | 0.271 | 0.946 | 0.849 | 0.966 | 0.776 | 0.85 | 0.583 | 0.288 | 0.294 |
| NCI-H1755 | 0.987 | 0.859 | 0.53 | 0.45 | 0.614 | – | 0.642 | 0.582 | 0.8 | 0.815 | 0.637 | 0.557 | 1.05 | – | 0.955 | 0.976 | 0.996 | 0.847 | 0.516 | 0.404 |
| NCI-H1792 | 0.468 | 0.491 | 0.358 | 0.252 | 0.24 | 0.219 | 0.207 | 0.186 | 0.315 | 0.376 | 0.509 | 0.258 | 0.466 | 0.405 | 0.525 | 0.432 | 0.492 | 0.629 | 0.192 | 0.117 |
| NCI-H1793 | 0.986 | 0.841 | 0.451 | 0.257 | 0.344 | 0.335 | 0.287 | 0.243 | 0.389 | 0.342 | 0.292 | 0.259 | 0.785 | 0.397 | 0.767 | 0.651 | 0.941 | 0.859 | 0.339 | 0.209 |
| NCI-H1915 | 0.266 | 0.228 | 0.17 | 0.143 | 0.398 | 0.378 | 0.383 | 0.35 | 0.3 | 0.31 | 0.225 | 0.132 | 1.15 | 1.17 | 1.1 | 1.08 | 1.06 | 1.01 | 0.529 | 0.239 |
| NCI-H1944 | 0.401 | 0.361 | 0.205 | 0.206 | 0.199 | 0.194 | 0.198 | 0.172 | 0.408 | 0.307 | 0.196 | 0.206 | 1.17 | – | 0.776 | 0.642 | 1.17 | 0.973 | 0.528 | 0.331 |
| NCI-H1975 | 0.731 | 0.723 | 0.783 | 0.647 | 0.415 | 0.377 | 0.405 | 0.38 | 0.323 | 0.777 | 0.337 | 0.234 | 0.954 | 0.974 | 0.991 | – | 0.932 | 0.769 | 0.341 | 0.223 |
| NCI-H1993 | 1.07 | 1 | 0.552 | 0.391 | 0.564 | 0.59 | 0.573 | 0.549 | 0.541 | 0.529 | 0.445 | 0.433 | 0.763 | – | 0.728 | 0.85 | 0.788 | 0.686 | 0.61 | 0.588 |
| NCI-H2009 | 0.716 | 0.636 | 0.458 | 0.0682 | 0.533 | 0.51 | 0.529 | 0.49 | 0.346 | 0.267 | 0.17 | 0.0856 | 1.26 | 1.15 | 1.2 | 1.22 | 1.21 | 0.704 | 0.315 | 0.323 |
